IC50 and melting point data for one molecule are collected here from patent US7148230B2, “Quinazoline derivatives” (AstraZeneca AB, priority 2003, dated 2006).

One data set deals with T1, EGFR tyrosine kinase (Homo sapiens, UniProt P00533).
T1 construct: Recombinant intracellular fragments of EGFR, erbB2 and erbB4; made in house; host or cells: baculovirus/Sf21 insect cells (cleared lysate used)
The data set can be described thus: Protein tyrosine kinase phosphorylation assay, Test (a), EGFR. The data set is classed as biochemical. The following applies: ATP at Km concentration; read-out: IC50 (nM) Test (a) (Inhibition of EGFR tyrosine kinase protein phosphorylation). The protocol: (§1) This test measures the ability of a test compound to inhibit the phosphorylation of a tyrosine containing polypeptide substrate by an erbB tyrosine kinase enzyme.
(§2) Recombinant intracellular fragments of EGFR, erbB2 and erbB4 (accession numbers X00588, X03363 and L07868 respectively) were cloned and expressed in the baculovirus/Sf21 system. Lysates were prepared from these cells by treatment with ice-cold lysis buffer (20 mM N-2-hydroxyethylpiperizine-N′-2-ethanesulfonic acid (HEPES) pH7.5, 150 mM NaCl, 10% glycerol, 1% Triton X-100, 1.5 mM MgCl2, 1 mM ethylene glycol-bis(β-aminoethyl ether) N′,N′,N′,N′-tetraacetic acid (EGTA), plus protease inhibitors and then cleared by centrifugation.
(§3) Constitutive kinase activity of the recombinant protein was determined by its ability to phosphorylate a synthetic peptide (made up of a random co-polymer of Glutamic Acid, Alanine and Tyrosine in the ratio of 6:3:1). […]
(§4) The immobilised phospho-peptide product of the reaction was detected by immunological methods. […] After further washing, HRP activity in each well of the plate was measured colorimetrically using 22′-Azino-di-[3-ethylbenzthiazoline sulfonate (6)]diammonium salt crystals (ABTS™ from Roche) as a substrate.
(§5) Quantification of colour development and thus enzyme activity was achieved by the measurement of absorbance at 405 nm on a Molecular Devices ThermoMax microplate reader. […]

In a further data set the target is T2, erbB2 tyrosine kinase (Homo sapiens, UniProt P04626).
T2 construct: Recombinant intracellular fragments of EGFR, erbB2 and erbB4; made in house; host or cells: baculovirus/Sf21 insect cells (cleared lysate used)
T2 sequence (P04626 676-1255 limits assumed): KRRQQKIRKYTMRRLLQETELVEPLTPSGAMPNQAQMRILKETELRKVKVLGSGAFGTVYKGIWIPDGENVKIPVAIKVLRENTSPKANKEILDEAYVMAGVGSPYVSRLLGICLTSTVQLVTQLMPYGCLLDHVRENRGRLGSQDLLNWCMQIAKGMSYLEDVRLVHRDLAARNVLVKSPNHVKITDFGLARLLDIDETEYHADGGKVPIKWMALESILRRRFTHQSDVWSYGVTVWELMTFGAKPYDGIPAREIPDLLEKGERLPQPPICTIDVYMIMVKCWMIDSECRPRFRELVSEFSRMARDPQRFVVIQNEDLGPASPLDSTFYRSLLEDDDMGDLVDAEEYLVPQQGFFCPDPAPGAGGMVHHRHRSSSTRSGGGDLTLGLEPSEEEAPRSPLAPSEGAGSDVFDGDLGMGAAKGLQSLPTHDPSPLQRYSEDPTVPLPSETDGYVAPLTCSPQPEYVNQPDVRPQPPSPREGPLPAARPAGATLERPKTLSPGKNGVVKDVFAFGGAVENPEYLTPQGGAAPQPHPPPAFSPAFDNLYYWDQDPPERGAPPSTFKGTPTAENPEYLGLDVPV
The data set can be described thus: Protein tyrosine kinase phosphorylation assay, Test (a), erbB2. It counts as biochemical. The following applies: ATP at Km concentration; read-out: IC50 (nM) Test (a) (Inhibition of erbB2 tyrosine kinase protein phosphorylation). The protocol: as §1, §2, §3, §4, §5

T1 sequence (P00533 669-1210 limits assumed): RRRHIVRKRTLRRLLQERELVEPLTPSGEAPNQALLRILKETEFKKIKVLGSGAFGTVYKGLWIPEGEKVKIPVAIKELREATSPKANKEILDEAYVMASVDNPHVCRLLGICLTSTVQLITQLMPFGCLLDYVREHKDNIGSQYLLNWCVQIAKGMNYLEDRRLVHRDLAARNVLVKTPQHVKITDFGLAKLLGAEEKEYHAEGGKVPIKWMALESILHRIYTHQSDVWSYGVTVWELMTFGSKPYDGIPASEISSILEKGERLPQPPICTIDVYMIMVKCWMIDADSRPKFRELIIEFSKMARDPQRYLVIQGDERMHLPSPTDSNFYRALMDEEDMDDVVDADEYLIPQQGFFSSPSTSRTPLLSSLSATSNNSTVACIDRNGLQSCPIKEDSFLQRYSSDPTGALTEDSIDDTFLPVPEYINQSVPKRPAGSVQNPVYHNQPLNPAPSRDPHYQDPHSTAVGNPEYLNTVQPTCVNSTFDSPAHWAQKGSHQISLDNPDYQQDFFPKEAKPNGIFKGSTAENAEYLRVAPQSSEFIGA

In turn, `COc1cc2ncnc(Nc3cccc(Cl)c3F)c2cc1OC1CCN(C(=O)CO)CC1` [Example 1, 4-(3-chloro-2-fluoroanilino)-6-[1-(hydroxyacetyl)piperidin-4-yloxy]-7-methoxyquinazoline] displayed a melting point of 195.5 to 196.5 °C. Also, the IC50 on EGFR tyrosine kinase was 3 nM. In addition, the IC50 at erbB2 tyrosine kinase was determined as 59 nM.
